Source: patent publication US20260028673A1, “PR[…] OF TCF1+ […]-CELLS IN SEVERE COVID-19 AS MEDIATED BY INTERLEUKIN 12 (IL-12)” (priority 2022, published 2026)
Entries after “also recorded” stand apart in the source; their conditions may differ.

Legend:
IL-12 production = details: reference 51; cited from earlier work
COVID-19 = details: reference 50; cited from earlier work
IL12p40 = IL12p40 (Homo sapiens, UniProt P29460); format: cell-based; details: severe sera, 6 days, FIG. 9D
TCF-1 = details: reference 67; transcriptional level, by inhibiting DNA methyltransferases; cited from earlier work

Sequence of IL12p40 (P29460 23-328): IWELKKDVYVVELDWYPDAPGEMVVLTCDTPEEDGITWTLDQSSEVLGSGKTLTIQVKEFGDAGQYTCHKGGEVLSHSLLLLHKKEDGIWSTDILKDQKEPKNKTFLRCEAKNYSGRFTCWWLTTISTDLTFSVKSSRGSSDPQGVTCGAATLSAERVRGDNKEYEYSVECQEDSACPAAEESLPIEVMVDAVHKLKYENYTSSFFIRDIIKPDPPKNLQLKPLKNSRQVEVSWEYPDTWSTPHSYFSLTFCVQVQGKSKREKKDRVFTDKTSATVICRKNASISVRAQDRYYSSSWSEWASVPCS
Sequence of IL12p40 (P29459 23-219, further chain): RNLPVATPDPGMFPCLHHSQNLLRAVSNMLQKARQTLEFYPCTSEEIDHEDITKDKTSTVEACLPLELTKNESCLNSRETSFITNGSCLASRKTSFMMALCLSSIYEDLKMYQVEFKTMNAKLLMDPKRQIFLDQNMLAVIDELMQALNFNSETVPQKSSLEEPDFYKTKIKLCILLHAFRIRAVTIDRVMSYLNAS

| Compound | IL-12 production (IL-12 production) | Success in treating COVID-19 patients (COVID-19) | TCF1 expression in naïve, TCM, TEM and TEMRA T-cell subsets (IL12p40) | TCF-1 (TCF1) expression (TCF-1) |
| --- | --- | --- | --- | --- |
| C[C@@H]1C[C@H]2[C@@H]3CCC4=CC(=O)C=C[C@]4(C)[C@@]3(F)[C@@H](O)C[C@]2(C)[C@@]1(O)C(=O)CO [dexamethasone] | inhibits IL-12 production | proven successful |  |  |
| IL-12: proinflammatory cytokine interleukin 12 |  |  | restored | down-regulate TCF-1 at the transcriptional level; also recorded: downregulate TCF1 |
